Patent publication US20230056205A1, “SUBSTITUTED 4,6-DIHYDROSPIRO[[1,2,3]TRIAZOLO[4,5-B]PYRIDINE-7,3'-INDOLINE]-2',5(3H)-DIONE ANALOGUES” (The Board of Regents of The University of Texas System, priority 2019, published 2023)
Read-outs that look alike come from different tables or passages of the source.

Columns and labels:
DENV-1 replicon = assay: Luciferase reporter replicon-based screening, DENV-1; assay type: cell-based, DENV-1 (strain WestPac); settings: Dengue virus, DENV1, Huh-7, 48 h, read-out: EC50 DENV-1
Description: (§1) Luciferase Reporter Replicon-Based Screening. Huh7 cells containing a luciferase reporter replicon of DENV-1 (strain WestPac), DENV-2 (New Guinea C strain, NGC), DENV-3 (strain D3MY05-34640) and DENV-4 (strain D4MY01-22713) were used in this study. The replicon cells containing the Renilla luciferase and neomycin-resistance genes were generated using a similar strategy as described previously.^55 Briefly, Huh7 DENV-1 to -4 replicon cells were seeded at a density of 10k per well in a 96-well microplate. After incubation at 37° C. with 5% CO2 overnight, the cells were treated with 2-fold serial dilutions of compounds. Experiments were performed in duplicates. After 48 h of incubation, luciferase activities were measured using the EnduRen live-cell substrate (Promega) by following the manufacturer’s instructions. The dose-dependent curve was plotted and EC50 values were calculated using four parameter logistic regression in GraphPad software Prism 8.0.

DENV-2 replicon = assay: Luciferase reporter replicon-based screening, DENV-2; assay type: cell-based, DENV-2 (New Guinea C strain, NGC)
Description: as §1

[1] = Cytotoxicity assay (CellTiter-Glo); assay type: cell-based; settings: human, Huh7 cells stably expressing DENV-2 replicon
Description: Cytotoxicity Assay. Huh7 cells or Huh7 replicon cells were seeded in a 96-well plate. After incubation at 37° C. with 5% CO2 overnight, the cells were treated with 2-fold serial dilutions of compounds. Experiments were performed in duplicates. After 48 h of incubation, cell viability was measured by adding the CellTiter-Glo reagent (Promega) to each well. The cell viability in 0.45% DMSO-treatment groups was treated at 100%. The cell viability in compound-treated wells was normalized to that of DMSO-treated wells. CC50 values were calculated using four parameter logistic regression in GraphPad software Prism 8.0.

DENV-4 replicon = assay: Luciferase reporter replicon-based screening, DENV-4; assay type: cell-based, DENV-4 (strain D4MY01-22713); settings: Dengue virus, DENV4, Huh-7, 48 h, read-out: EC50 DENV-4
Description: as §1

DENV-3 replicon = assay: Luciferase reporter replicon-based screening, DENV-3; assay type: cell-based, DENV-3 (strain D3MY05-34640)
Description: as §1

[2] = Dengue virus, DENV2, Huh-7, 48 h, read-out: EC50 DENV-2, Huh7 cells stably expressing DENV-2 replicon, 48 h
[3] = Dengue virus, DENV3, Huh-7, 48 h, read-out: EC50 DENV-3, Huh7 cells stably expressing DENV-3 replicon, 48 h

SMILES: C[C@@H](c1ccc(Cl)cc1)n1nnc2c1NC(=O)C[C@]21C(=O)N(CCN2CCC2)c2ccc(Cl)cc21 [Compound 61, (R)-1'-(2-(Azetidin-1-yl)ethyl)-5'-chloro-3-((S)-1-(4-chlorophenyl)ethyl)-4,6-dihydrospiro[[1,2,3]triazolo[4,5-b]pyridine-7,3'-indoline]-2',5(3H)-dione]
- EC50 (DENV-1 replicon): > 5000 nM
- EC50 (DENV-2 replicon; [2]): 67 nM
- CC50 at 48 h [1]: > 10000 nM
- EC50 (DENV-4 replicon): > 5000 nM
- EC50 (DENV-3 replicon; [3]): 7 nM

SMILES: CCCCCCCCCCN1C(=O)[C@]2(CC(=O)Nc3c2nnn3[C@@H](C)c2ccc(Cl)cc2)c2cc(Cl)ccc21 [Compound 12, (R)-5'-Chloro-3-((S)-1-(4-chlorophenyl)ethyl)-1'-decyl-4,6-dihydrospiro[[1,2,3]triazolo[4,5-b]pyridine-7,3'-indoline]-2ʹ,5(3H)-dione]
- EC50 (DENV-1 replicon): 3400 nM
- EC50 (DENV-2 replicon; [2]): > 10000 nM
- CC50 at 48 h [1]: > 10000 nM
- EC50 (DENV-4 replicon): 7300 nM
- EC50 (DENV-3 replicon; [3]): 1200 nM

SMILES: Cc1ccc(CN2C(=O)[C@]3(CC(=O)Nc4c3nnn4[C@@H](C)c3ccc(Cl)cc3)c3cc(Cl)ccc32)cn1 [Compound 37, (R)-5'-Chloro-3-((S)-1-(4-chlorophenyl)ethyl)-1'-((6-methylpyridin-3-yl)methyl)-4,6-dihydrospiro[[1,2,3]triazolo[4,5-b]pyridine-7,3'-indoline]-2',5(3H)-dione]
- EC50 (DENV-1 replicon): > 5000 nM
- EC50 (DENV-2 replicon; [2]): 150 nM
- CC50 at 48 h [1]: > 10000 nM
- EC50 (DENV-4 replicon): > 5000 nM
- EC50 (DENV-3 replicon; [3]): 11 nM

SMILES: C[C@@H](c1ccc(Cl)cc1)n1nnc2c1NC(=O)C[C@]21C(=O)N(Cc2cc(C(C)(C)C)cc(C(C)(C)C)c2)c2ccc(Cl)cc21 [Compound 31, (R)-5'-Chloro-3-((S)-1-(4-chlorophenyl)ethyl)-1'-(3,5-di-tert-butylbenzyl)-4,6-dihydrospiro[[1,2,3]triazolo[4,5-b]pyridine-7,3ʹ-indoline]-2',5(3H)-dione]
- EC50 (DENV-1 replicon): 4600 nM
- EC50 (DENV-2 replicon; [2]): > 10000 nM
- CC50 at 48 h [1]: > 10000 nM
- EC50 (DENV-4 replicon): 4900 nM
- EC50 (DENV-3 replicon; [3]): 5900 nM

SMILES: C[C@@H](c1ccc(Cl)cc1)n1nnc2c1NC(=O)C[C@]21C(=O)N(CCN2CCCC2)c2ccc(Cl)cc21 [Compound 58, (R)-5'-Chloro-3-((S)-1-(4-chlorophenyl)ethyl)-1'-(2-(pyrrolidin-1-yl)ethyl)-4,6-dihydrospiro[[1,2,3]triazolo[4,5-b]pyridine-7,3'-indoline]-2',5(3H)-dione]
- EC50 (DENV-1 replicon): > 5000 nM
- EC50 (DENV-2 replicon; [2]): 38 nM
- CC50 at 48 h [1]: > 10000 nM
- EC50 (DENV-4 replicon): > 5000 nM
- EC50 (DENV-3 replicon; [3]): 6 nM

SMILES: C[C@@H](c1ccc(Cl)cc1)n1nnc2c1NC(=O)C[C@]21C(=O)N(CCF)c2ccc(Cl)cc21 [Compound 46, (R)-5'-Chloro-3-((S)-1-(4-chlorophenyl)ethyl)-1'-(2-fluoroethyl)-4,6-dihydrospiro[[1,2,3]triazolo[4,5-b]pyridine-7,3'-indoline]-2',5(3H)-dione]
- EC50 (DENV-1 replicon): > 5000 nM
- EC50 (DENV-2 replicon; [2]): 37 to 290 nM
- EC50 (DENV-2 replicon; read-out: EC50 DENV-2, Huh7 cells stably expressing DENV-2 replicon, 48 h): 38 nM
- CC50 at 48 h [1]: > 10000 nM
- EC50 (DENV-4 replicon): > 5000 nM
- EC50 (DENV-3 replicon; [3]): 9 to 76 nM
- EC50 (DENV-3 replicon; read-out: EC50 DENV-3, Huh7 cells stably expressing DENV-3 replicon, 48 h): 9 nM

SMILES: C[C@@H](c1ccc(Cl)cc1)n1nnc2c1NC(=O)C[C@]21C(=O)N(CCN(C)C)c2ccc(Cl)cc21 [Compound 57, (R)-5'-Chloro-3-((S)-1-(4-chlorophenyl)ethyl)-1'-(2-(dimethylamino)ethyl)-4,6-dihydrospiro[[1,2,3]triazolo[4,5-b]pyridine-7,3'-indoline]-2',5(3H)-dione]
- EC50 (DENV-1 replicon): > 5000 nM
- EC50 (DENV-2 replicon; [2]): 25 nM
- CC50 at 48 h [1]: > 10000 nM
- EC50 (DENV-4 replicon): > 5000 nM
- EC50 (DENV-3 replicon; [3]): 2 nM

SMILES: C[C@@H](c1ccc(Cl)cc1)n1nnc2c1NC(=O)C[C@]21C(=O)N(C)c2ccc(Cl)cc21 [Compound 7, (R)-5'-Chloro-3-((S)-1-(4-chlorophenyl)ethyl)-1'-methyl-4,6-dihydrospiro[[1,2,3]triazolo[4,5-b]pyridine-7,3'-indoline]-2',5(3H)-dione]
- EC50 (DENV-1 replicon): > 5000 nM
- EC50 (DENV-2 replicon; [2]): 19 nM
- CC50 at 48 h [1]: > 10000 nM
- EC50 (DENV-4 replicon): > 5000 nM
- EC50 (DENV-3 replicon; [3]): 4 nM

SMILES: COCCCN1C(=O)C[C@]2(C(=O)Nc3ccc(Cl)cc32)c2nnn([C@@H](C)c3ccc(Cl)cc3)c21 [Compound 40, (R)-5'-Chloro-3-((S)-1-(4-chlorophenyl)ethyl)-4-(3-methoxypropyl)-4,6-dihydrospiro[[1,2,3]triazolo[4,5-b]pyridine-7,3-indoline]-2',5(3H)-dione]
- EC50 (DENV-1 replicon): > 10000 nM
- EC50 (DENV-2 replicon; [2]): 8700 nM
- CC50 at 48 h [1]: > 10000 nM
- EC50 (DENV-4 replicon): > 10000 nM
- EC50 (DENV-3 replicon; [3]): 910 nM

SMILES: C[C@@H](c1ccc(Cl)cc1)n1nnc2c1NC(=O)C[C@]21C(=O)N(Cc2ccccn2)c2ccc(Cl)cc21 [Compound 33, (R)-5'-chloro-3-((S)-1-(4-chlorophenyl)ethyl)-1'-(pyridin-2-ylmethyl)-4,6-dihydrospiro[[1,2,3]triazolo[4,5-b]pyridine-7,3'-indoline]-2',5(3H)-dione]
- EC50 (DENV-1 replicon): > 5000 nM
- EC50 (DENV-2 replicon; [2]): 20 nM
- CC50 at 48 h [1]: > 10000 nM
- EC50 (DENV-4 replicon): > 5000 nM
- EC50 (DENV-3 replicon; [3]): 3 nM

SMILES: CC(C)N1C(=O)[C@]2(CC(=O)Nc3c2nnn3[C@@H](C)c2ccc(Cl)cc2)c2cc(Cl)ccc21 [Compound 13, (R)-5'-Chloro-3-((S)-1-(4-chlorophenyl)ethyl)-1'-isopropyl-4,6-dihydrospiro[[1,2,3]triazolo[4,5-b]pyridine-7,3ʹ-indoline]-2',5(3H)-dione]
- EC50 (DENV-1 replicon): 5700 nM
- EC50 (DENV-2 replicon; [2]): 23 nM
- CC50 at 48 h [1]: > 10000 nM
- EC50 (DENV-4 replicon): > 5000 nM
- EC50 (DENV-3 replicon; [3]): 9 nM

SMILES: CC(C)N1C(=O)[C@]2(CC(=O)N(C(C)C)c3c2nnn3[C@@H](C)c2ccc(Cl)cc2)c2cc(Cl)ccc21 [Compound 22, (R)-5'-Chloro-3-((S)-1-(4-chlorophenyl)ethyl)-1',4-diisopropyl-4,6-dihydrospiro[[1,2,3]triazolo[4,5-b]pyridine-7,3'-indoline]-2ʹ,5(3H)-dione]
- EC50 (DENV-1 replicon): 3800 nM
- EC50 (DENV-2 replicon; [2]): > 10000 nM
- CC50 at 48 h [1]: > 10000 nM
- EC50 (DENV-4 replicon): 3000 nM
- EC50 (DENV-3 replicon; [3]): 1500 nM

SMILES: C[C@@H](c1ccc(Cl)cc1)n1nnc2c1NC(=O)C[C@]21C(=O)N(Cc2ccc(Cl)nc2)c2ccc(Cl)cc21 [Compound 36, (R)-5'-Chloro-3-((S)-1-(4-chlorophenyl)ethyl)-1'-((6-chloropyridin-3-yl)methyl)-4,6-dihydrospiro[[1,2,3]triazolo[4,5-b]pyridine-7,3ʹ-indoline]-2',5(3H)-dione]
- EC50 (DENV-1 replicon): > 5000 nM
- EC50 (DENV-2 replicon; [2]): 78 nM
- CC50 at 48 h [1]: > 10000 nM
- EC50 (DENV-4 replicon): > 5000 nM
- EC50 (DENV-3 replicon; [3]): 6 nM

SMILES: C[C@@H](c1ccc(Cl)cc1)n1nnc2c1NC(=O)C[C@]21C(=O)N(CCCCCCN(C)C)c2ccc(Cl)cc21 [Compound 68, (R)-5'-Chloro-3-((S)-1-(4-chlorophenyl)ethyl)-1'-(6-(dimethylamino)hexyl)-4,6-dihydrospiro[[1,2,3]triazolo[4,5-b]pyridine-7,3'indoline]-2',5(3H)-dione]
- EC50 (DENV-1 replicon): 1500 nM
- EC50 (DENV-2 replicon; [2]): 900 nM
- CC50 at 48 h [1]: > 10000 nM
- EC50 (DENV-4 replicon): > 5000 nM
- EC50 (DENV-3 replicon; [3]): 66 nM

SMILES: CCCCCCN1C(=O)[C@]2(CC(=O)Nc3c2nnn3[C@@H](C)c2ccc(Cl)cc2)c2cc(Cl)ccc21 [Compound 11, (R)-5'-Chloro-3-((S)-1-(4-chlorophenyl)ethyl)-1'-hexyl-4,6-dihydrospiro[[1,2,3]triazolo[4,5-b]pyridine-7,3'-indoline]-2',5(3H)-dione]
- EC50 (DENV-1 replicon): 830 nM
- EC50 (DENV-2 replicon; [2]): 810 nM
- CC50 at 48 h [1]: > 10000 nM
- EC50 (DENV-4 replicon): > 5000 nM
- EC50 (DENV-3 replicon; [3]): 140 nM

SMILES: C[C@@H](c1ccc(Cl)cc1)n1nnc2c1NC(=O)C[C@]21C(=O)N(CCN2CCCCC2)c2ccc(Cl)cc21 [Compound 56, (R)-5'-Chloro-3-((S)-1-(4-chlorophenyl)ethyl)-1'-(2-(piperidin-1-yl)ethyl)-4,6-dihydrospiro[[1,2,3]triazolo[4,5-b]pyridine-7,3'-indoline]-2',5(3H)-dione]
- EC50 (DENV-1 replicon): > 5000 nM
- EC50 (DENV-2 replicon; [2]): 74 nM
- CC50 at 48 h [1]: > 10000 nM
- EC50 (DENV-4 replicon): > 5000 nM
- EC50 (DENV-3 replicon; [3]): 5 nM

SMILES: CCN1C(=O)[C@]2(CC(=O)Nc3c2nnn3[C@@H](C)c2ccc(Cl)cc2)c2cc(Cl)ccc21 [Compound 8, (R)-5'-Chloro-3-((S)-1-(4-chlorophenyl)ethyl)-1'-ethyl-4,6-dihydrospiro[[1,2,3]triazolo[4,5-b]pyridine-7,3'-indoline]-2',5(3H)-dione]
- EC50 (DENV-1 replicon): 2500 nM
- EC50 (DENV-2 replicon; [2]): 24 nM
- CC50 at 48 h [1]: > 10000 nM
- EC50 (DENV-4 replicon): > 5000 nM
- EC50 (DENV-3 replicon; [3]): 6 nM
